In patent US9040717B2, “Pyrazole-amide compounds and pharmaceutical use thereof” (JAPAN TOBACCO INC., priority 2013, dated 2015):

Experiments:
[1] = Metabolic stability test in human liver microsome; format: in vitro ADME; details: 5 μM, 37° C.
Method: Human liver microsome (manufactured by Xenotech, H0620, final concentration (after dilution), 0.2 mg protein/mL) was suspended in 100 mM potassium phosphate buffer (pH 7.4, containing β-nicotinamide adenine dinucleotide phosphate: 1.3 mM, D-glucose-6-phosphate: 3.3 mM, magnesium chloride: 3.3 mM, glucose-6-phosphate dehydrogenase: 0.45 U/mL), and further mixed with a test compound dissolved in MeCN/DMSO (95/5) (final concentration 5 μM). The mixture was incubated at 37° C. for 10 min and 60 min, acetonitrile containing formic acid (final concentration 0.1%) was added, and the mixture was centrifuged. The test compound (unmodified) in the supernatant was measured by high performance liquid chromatography/mass spectrometry (LC/MS) (manufactured by Waters, LC: Acquity UPLC, MS:SQ Detector or TQ Detector). The residual ratio (%) was calculated from the obtained measurement value.

[2] = target: hERG current in hERG-transfected HEK293 cells (Homo sapiens (Human), UniProt Q12809); assay: hERG whole cell patch clamp test; format: cell-based; details: for IC50: whole cell patch clamp
Sequence of hERG current in hERG-transfected HEK293 cells (Q12809 whole entry): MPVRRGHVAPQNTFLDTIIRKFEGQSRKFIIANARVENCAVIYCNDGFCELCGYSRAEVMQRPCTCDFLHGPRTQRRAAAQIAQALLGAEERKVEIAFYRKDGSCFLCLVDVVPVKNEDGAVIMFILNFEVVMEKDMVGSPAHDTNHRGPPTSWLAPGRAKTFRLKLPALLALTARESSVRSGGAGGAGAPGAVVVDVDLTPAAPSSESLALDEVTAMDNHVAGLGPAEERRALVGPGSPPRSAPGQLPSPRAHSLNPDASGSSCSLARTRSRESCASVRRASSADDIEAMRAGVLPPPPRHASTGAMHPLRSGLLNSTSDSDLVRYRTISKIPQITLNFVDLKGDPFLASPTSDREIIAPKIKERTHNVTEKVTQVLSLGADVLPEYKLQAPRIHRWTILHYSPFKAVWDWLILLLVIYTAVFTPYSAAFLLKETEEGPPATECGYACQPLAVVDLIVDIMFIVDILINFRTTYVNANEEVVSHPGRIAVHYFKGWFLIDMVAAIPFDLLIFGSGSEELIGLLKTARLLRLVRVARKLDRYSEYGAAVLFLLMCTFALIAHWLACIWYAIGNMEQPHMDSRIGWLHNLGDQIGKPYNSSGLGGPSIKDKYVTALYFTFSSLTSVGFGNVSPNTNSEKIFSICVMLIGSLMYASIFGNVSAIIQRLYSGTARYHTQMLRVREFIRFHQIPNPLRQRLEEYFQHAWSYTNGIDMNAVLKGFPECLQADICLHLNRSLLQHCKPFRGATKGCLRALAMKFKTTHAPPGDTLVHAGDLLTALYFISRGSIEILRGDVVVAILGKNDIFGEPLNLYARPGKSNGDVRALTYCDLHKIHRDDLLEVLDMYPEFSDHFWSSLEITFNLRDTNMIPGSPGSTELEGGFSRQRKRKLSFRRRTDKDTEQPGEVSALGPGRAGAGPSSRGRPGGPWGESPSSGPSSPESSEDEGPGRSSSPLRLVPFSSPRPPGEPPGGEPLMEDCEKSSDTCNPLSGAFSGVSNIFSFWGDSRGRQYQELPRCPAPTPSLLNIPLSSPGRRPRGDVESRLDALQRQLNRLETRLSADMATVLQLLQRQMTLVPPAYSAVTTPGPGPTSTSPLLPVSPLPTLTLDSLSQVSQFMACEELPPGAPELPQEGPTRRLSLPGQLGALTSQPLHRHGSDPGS
Method: Using human ether-a-go-go related gene (hERG)-transfected HEK293 cells (Cytomyx Limited), an influence on hERG current was examined according to the whole cell patch clamp technique. The hERG-transfected HEK293 cells were passaged using a CO2 incubator (BNA-111, TABAI ESPEC CORP.) under the set conditions of 37° C., 5% CO2, saturated humidity. Culture containers used were Collagen Type I Coated 75 cm^2 flask (4123-010, AGC TECHNO GLASS CO., Ltd.) and Collagen Type I Coated 35 mm culture dish (4000-010, AGC TECHNO GLASS CO., Ltd.). The culture medium used was E-MEM (Eagle Minimum Essential Medium (Earle's Salts, Nikken biomedical laboratory) added with 10% FCS (Fetal calf serum, BioWest, L.L.C.) and 1% MEM Non-Essential Amino Acids Solution (NEAA, Invitrogen Corporation). Geneticin for the selection of hERG gene expressing cells was added thereto to a concentration of 400 μg/mL. As the cells for the measurement, 3×10^4 hERG-transfected HEK293 cells were plated on a 35 mm culture dish 4 to 7 days before measurement of the hERG current. The culture dish produced for the measurement contained the above-mentioned culture medium without geneticin (Invitrogen Corporation).
The highest evaluation concentration of each compound was determined from the highest concentration at which precipitation was not found in the standard extracellular fluid (NaCl: 140 mmol/L, KCl: 2.5 mmol/L, MgCl2:2 mmol/L, CaCl2: 2 mmol/L, HEPES: 10 mmol/L, glucose: 10 mmol/L (adjusted to pH 7.4 with Tris-base)). As the application method, each solution to be applied was ejected from a Y-tube having a tip diameter of about 0.25 mm, which was adjacent (about 2 mm) to the cells, and applied to the cells. The ejection rate was about 0.4 mL/min.
The experiment was performed at room temperature under a phase contrast microscope. The 35 mm culture dish plated with the cells was set on a measurement apparatus, and the standard extracellular fluid was continuously applied to the cells from the Y-tube. A glass electrode for the measurement was filled with an intracellular fluid (Potassium Gluconate: 130 mmol/L, KCl: 20 mmol/L, MgCl2: 1 mmol/L, ATP-Mg: 5 mmol/L, EGTA: 3.5 mmol/L, HEPES: 10 mmol/L (adjusted to pH 7.2 with Tris-base)). A conventional whole cell patch clamp method was applied to the cells, and the maintenance electric potential was set to −80 mV. Under a fixed electric potential, the whole cell current was amplified by an amplifier for patch clamp (AXOPATCH-200B, Axon Instruments, Inc.), and the data was loaded into a computer (IMC-P642400, Intermedical Co., Ltd.) using a data acquisition analysis software (pCLAMP 9.2, Axon Instruments, Inc.).
The measurement of the hERG current was performed in the following two steps. In both cases, the hERG current was initiated by giving a command potential (maintenance electric potential −80 mV, prepulse +20 mV, 1.5 sec, test-pulse −50 mV, 1.5 sec).
Step (1): The above-mentioned command potential was given at 0.1 Hz for 2 min.
Step (2): The above-mentioned command potential was subjected to P/3 subtraction of pCLAMP 9.2 to remove leak current. This was repeated three times and an average thereof was taken as hERG current.
Subsequent to step (1), Step (2) was performed (about 3 min), and the maximum tail current obtained by applying a test-pulse to the hERG current obtained by the method of step (2) was taken as hERG current value. Hereafter, the operations of (1) and (2) were alternately repeated until completion of the experiment and the hERG current value was measured.
Stable hERG current value was recorded three times (about 10 min), and the standard extracellular fluid was instantaneously exchanged with each application fluid. The hERG current value was measured three times (about 10 min) in the same manner during perfusion of the application fluid, and the current value obtained by the 3rd measurement was taken as hERG current value after perfusion of the application fluid. […]

[3] = test system: Zucker Diabetic Fatty rats; assay: Effect of repeated administration on HbA1c in ZDF rats; format: in vivo, rat; details: 1 mg/kg oral once daily, day 14 of administration, mean ± S.D. (n = 10), *p < 0.05 vs. vehicle group
Method: Zucker Diabetic Fatty rats (male, 7-week-old, CHARLES RIVER LABORATORIES JAPAN INC.), an animal model for type 2 diabetes, given a purified diet (5.9% fat diet, Oriental Yeast Co., Ltd.) were allocated to the vehicle group and the test compound groups so that no bias occurred in the plasma glucose and insulin levels, HbAlc levels and body weights. Repeated oral doses of the test compound (1 mg/kg/5 mL) were administered to the rats once daily at 3 hr before the dark period. A 0.5% aqueous methylcellulose solution was orally administered in the same manner to the rats of the vehicle group. On day 14 of administration, blood samples were collected from the tail vein and HbAlc level (%) was measured. Statistical analysis was performed by Dunnett's test. Values of p<0.05 were cosidered statistically significant.

SMILES	Stability in liver microsome (residual ratio %) ([1]; 10 min) [%]	Stability in liver microsome (residual ratio %) ([1]; 60 min) [%]	hERG current Inhibition rate (%) ([2]; 30 μmol/L)	IC50 [2] [µM]	HbA1c (%) [3]	hERG current Inhibition rate (%) ([2]; 10 μmol/L)	hERG current Inhibition rate (%) ([2]; 1 μmol/L)
CC(C)(O)CCOc1cc(-c2cnn(C(C)(C)C(N)=O)c2)c2c(c1)[C@@](O)(C(F)(F)F)c1ccccc1-2 [Compound (2), 2-{4-[(9R)-9-hydroxy-2-(3-hydroxy-3-methylbutyloxy)-9-(trifluoromethyl)-9H-fluoren-4-yl]-1H-pyrazol-1-yl}-2-methylpropanamide]	98.8	96.5	24.4	> 30	3.2 ± 0.1* %		
CC(C)(O)CCCOc1cc(-c2cnn(C(C)(C)C(N)=O)c2)c2c(c1)[C@@](O)(C(F)(F)F)c1ccccc1-2 [Compound (3), 2-{4-[(9R)-9-hydroxy-2-(4-hydroxy-4-methylpentyloxy)-9-(trifluoromethyl)-9H-fluoren-4-yl]-1H-pyrazol-1-yl}-2-methylpropanamide]	98.4	85.9	27.3	> 30	3.4 ± 0.1* %		
NC(=O)Cn1cc(-c2cc(OCCC34CC5CC(CC(O)(C5)C3)C4)cc3c2-c2ccccc2[C@]3(O)C(F)(F)F)cn1 [Compound (A), 2-(4-{(9R)-9-Hydroxy-2-[2-(3-hydroxyadamantan-1-yl)ethoxy]-9-(trifluoromethyl)-9H-fluoren-4-yl}-1H-pyrazol-1-yl)acetamide]	34.8	0.0				11.8	
Cn1cc(-c2cc(OCC(C)(C)O)cc3c2-c2ccccc2[C@]3(O)C(F)(F)F)cn1 [Compound (B), (9R)-2-(2-Hydroxy-2-methylpropoxy)-4-(1-methyl-1H-pyrazol-4-yl)-9-(trifluoromethyl)-9H-fluoren-9-ol]	98.0	88.2				72.9	17.4
